We go through 35 compounds from ChEMBL document CHEMBL3352794, “Identification of potent inhibitors of the chicken soluble epoxide hydrolase” (Bioorg Med Chem Lett, 2015).

In brackets after ≈: the same amount, converted by molar mass. Bounds are passed on as bounds.

Data set [1] is described as follows: Inhibition of recombinant purified chicken soluble epoxide hydrolase using fluorescent PHOME as substrate. Set-up: species or system Gallus gallus.
Data set [2] can be described thus: Stability in chicken liver microsomes assessed as compound remaining at 1 uM after 30 mins by mass spectrometry in presence of NADPH. A general note: Microsomes from liver hold many membrane-bound enzymes, among them those of drug oxidation.
Data set [3] can be described thus: Stability in human liver microsomes assessed as compound remaining at 1 uM after 30 mins by mass spectrometry.
Data set [4] is described as follows: Stability in chicken liver microsomes assessed as compound remaining at 1 uM after 30 mins by mass spectrometry.
Data set [5] is described as follows: Solubility of the compound in 0.1 M sodium phosphate buffer at pH 7.4 containing 1% DMSO by turbidity method. Conditions: 0.1 M sodium phosphate buffer with 1% DMSO.
Data set [6] can be described thus: Stability in human liver microsomes assessed as compound remaining at 1 uM after 30 mins by mass spectrometry in presence of NADPH.
Data set [7] in a line: Inhibition of recombinant purified chicken soluble epoxide hydrolase by FRET-based competitive displacement assay in presence of ACPU. The arrangement: species or system Gallus gallus.

For `CC(=O)N1CCN(CCCCOc2cccc(NC(=O)NC34CC5CC(CC(C5)C3)C4)c2)CC1`, the IC50 in data set [1] worked out at 4 nM.

Consider `CC(=O)N1CCN(CCCCOc2ccc(NC(=O)NC34CC5CC(CC(C5)C3)C4)cc2)CC1`, for which the IC50 in data set [1] is 2.3 nM.

As to `NS(=O)(=O)c1ccc(-n2nc(CCCNC(=O)NC3CCCCCC3)cc2-c2ccccc2)cc1`, the IC50 in data set [1] turned out to be 3.3 nM.

Regarding `Cc1cc(C)c(CN2CCC(C(=O)NC3CCCCCC3)CC2)c(C)c1`, the IC50 in data set [1] was determined as 13 nM.

Consider `O=C(Nc1ccc(OCCOCCOCC(F)(F)F)cc1)NC12CC3CC(CC(C3)C1)C2`, for which, in data set [1], the half-maximal inhibitory concentration (IC50) was determined as 4.4 nM.

Consider `C=CCO[C@H]1CC[C@@H](NC(=O)NC23CC4CC(CC(C4)C2)C3)CC1`, for which, in data set [1], the IC50 is 1.7 nM.

For the compound `CCCCCOC(=O)C1CCCC(NC(=O)NC23CC4CC(CC(C4)C2)C3)C1` (stereo not given), the IC50 in data set [1] was determined as 5.7 nM.

With `O=C(O)CCCCCCCCCCCNC(=O)NC12CC3CC(CC(C3)C1)C2`, the half-inhibitory concentration (IC50) in data set [1] was found to be 13 nM. Further, the amount remaining at 0.5 h, 1 µM is 70% in data set [2], 98% in data set [3], 106% in data set [4] and 69% in data set [6]. Also, the solubility (kinetic) in data set [5] was 37.5 µM (≈ 14.7 µg/mL).

As to `O=C(NC1CCCCCC1)N[C@H]1CC[C@@H](Oc2ccc(F)cc2)CC1`, the half-inhibitory concentration (IC50) in data set [1] turned out to be 2.7 nM.

Consider `Cc1ccc(S(=O)(=O)N2CCC(C(=O)NCC3CCCCC3)CC2)c(C)c1`, for which, in data set [1], the IC50 came out at 3 nM.

`CNC(=O)c1ccc(O[C@H]2CC[C@H](NC(=O)NC34CC5CC(CC(C5)C3)C4)CC2)cc1`: the IC50 in data set [1] came out at 2.4 nM. For the same compound, the Ki in data set [7] is below 0.02 nM. For the same compound, the fraction remaining at 0.5 h, 1 µM in data set [2] worked out at 96%; in data set [3] it was 101%; in data set [4], 96%; in data set [6], 94%. The same compound displayed a solubility (kinetic) in data set [5] of 50 µM (≈ 21.3 µg/mL).

Consider `CNC(=O)c1cc(O[C@H]2CC[C@H](NC(=O)Nc3ccc(Cl)c(C(F)(F)F)c3)CC2)ccn1`, for which the half-inhibitory concentration (IC50) in data set [1] came to 11 nM.

For `CNC(=O)c1ccc(O[C@H]2CC[C@H](NC(=O)Nc3ccc(Cl)c(C(F)(F)F)c3)CC2)cn1`, in data set [1], the IC50 worked out at 5.1 nM.

`COc1ccc(O[C@H]2CC[C@@H](NC(=O)NC34CC5CC(CC(C5)C3)C4)CC2)cc1`: the amount remaining at 0.5 h, 1 µM in data set [2] was found to be 2.1%; in data set [3], 98%; in data set [4], 69%; in data set [6], 57%.

For the compound `O=C(CCCCCCCCCCCNC(=O)NC12CC3CC(CC(C3)C1)C2)N[C@@H]1O[C@H](CO)[C@H](O)[C@@H](O)[C@H]1O`, the IC50 in data set [1] is 3.5 nM.

As for `CCCCCOC(=O)C1CCC(NC(=O)NC23CC4CC(CC(C4)C2)C3)CC1` (stereo not given), the IC50 in data set [1] came to 5.2 nM.

For `CC(C)=CCO[C@H]1CC[C@@H](NC(=O)NC23CC4CC(CC(C4)C2)C3)CC1`, in data set [1], the IC50 was found to be 5.3 nM.

Consider `O=C(NCCCc1ccccc1)N[C@H]1CC[C@@H](Oc2ccc(F)cc2)CC1`, for which, in data set [1], the IC50 was 3.5 nM.

As to `O=C(NC1CCCCCCC1)N[C@H]1CC[C@@H](Oc2ccc(F)cc2)CC1`, the IC50 in data set [1] was 5.1 nM.

As to `O=C(Nc1ccc(C(F)(F)F)cc1)N[C@H]1CC[C@H](OCc2c(F)cccc2F)CC1`, the IC50 in data set [1] worked out at 4.4 nM.

As to `O=C(Nc1cccc(Cl)c1)N[C@H]1CC[C@H](OCc2c(F)cccc2F)CC1`, the IC50 in data set [1] turned out to be 2 nM.

On to `O=C(Nc1cccc(Br)c1)N[C@H]1CC[C@H](OCc2c(F)cccc2F)CC1`, for which the IC50 in data set [1] turned out to be 2.4 nM.

With `O=C(NCCCc1ccccc1)N[C@H]1CC[C@H](OCc2c(F)cccc2F)CC1`, in data set [1], the IC50 turned out to be 1.9 nM.

Consider `CCOC(=O)C(C)OCCCCCCCCNC(=O)NC12CC3CC(CC(C3)C1)C2` (stereo not given), for which, in data set [1], the IC50 was determined as 4.4 nM.

`COC(=O)c1ccc(C(=O)N2CCC(NC(=O)Nc3ccc(OC(F)(F)F)cc3)CC2)cc1`: the IC50 in data set [1] was determined as 1.4 nM. In addition, the share remaining at 0.5 h, 1 µM came out at 94% in data set [2], 1.2% in data set [3], 105% in data set [4] and 2.7% in data set [6]. In data set [5], this compound displayed a solubility (kinetic) of 75 µM (≈ 34.9 µg/mL).

Regarding `O=C(NC12CC3CC(CC(C3)C1)C2)N[C@H]1CC[C@H](OCc2cc(F)cc(F)c2)CC1`, the IC50 in data set [1] worked out at 3.1 nM.

For the compound `CC(C)(C)OC(=O)N1CCC(NC(=O)NC23CC4CC(CC(C4)C2)C3)CC1`, in data set [1], the IC50 was 7.5 nM.

For `NC(=O)CCCCCCCCCCCNC(=O)NC12CC3CC(CC(C3)C1)C2`, the IC50 in data set [1] amounted to 2.1 nM.

`O=C(NC12CC3CC(CC(C3)C1)C2)N[C@H]1CC[C@H](Oc2ccc(CO)cc2)CC1`: the IC50 in data set [1] was determined as 1.2 nM. Also, the Ki in data set [7] is below 0.02 nM. Further, the fraction remaining at 0.5 h, 1 µM came out at 24% in data set [2], 91% in data set [3], 73% in data set [4] and 53% in data set [6]. In data set [5], this compound returned a solubility (kinetic) above 100 µM.

For the compound `N#Cc1ccc(O[C@H]2CC[C@H](NC(=O)Nc3ccc(Cl)c(C(F)(F)F)c3)CC2)cc1`, the IC50 in data set [1] amounted to 3.6 nM.

`CNC(=O)c1ccc(O[C@H]2CC[C@@H](NC(=O)Nc3ccc(OC(F)(F)F)cc3)CC2)cc1`: the half-maximal inhibitory concentration (IC50) in data set [1] worked out at 2.1 nM. Moreover, the amount remaining at 0.5 h, 1 µM in data set [2] turned out to be 89%; in data set [3], 101%; in data set [4], 119%; in data set [6], 5.4%. This compound had a solubility (kinetic) in data set [5] of 10 µM (≈ 4.51 µg/mL).

Consider `CCN(CC)C(=O)c1cc(O[C@H]2CC[C@H](NC(=O)Nc3ccc(Cl)c(C(F)(F)F)c3)CC2)ccn1`, for which the IC50 in data set [1] turned out to be 9.6 nM.

Regarding `NS(=O)(=O)c1ccc(-n2nc(CCCNC(=O)Nc3ccc(C(F)(F)F)cc3)cc2-c2ccc(F)cc2)cc1`, in data set [1], the IC50 turned out to be 5.7 nM.

For the compound `O=C(NC12CC3CC(CC(C3)C1)C2)N[C@H]1CC[C@@H](Oc2ccc(F)cc2)CC1`, in data set [1], the IC50 stood at 1.2 nM.

As to `O=C(NCCCCOc1ccc(F)cc1)NC12CC3CC(CC(C3)C1)C2`, the IC50 in data set [1] was found to be 9.6 nM.

What is called IC50 is the concentration at which inhibition is half-maximal. The term kinetic solubility denotes the concentration staying in solution when a stock, usually in DMSO, is diluted into the medium. A word on the Ki: it is a dissociation constant, usually derived from enzyme kinetics or from competition with a known ligand.
